ChEMBL document CHEMBL1128401, “Structure-activity relationships in the 8-amino-6,7,8,9-tetrahydro-3H-benz[e]indole ring system. 1. Effects of substituents in the aromatic system on serotonin and dopamine receptor subtypes” (J Med Chem, 1995)
pKi: −log10 of the molar value. The source made the active and inactive calls. The rule behind the calls is not given here.

How the values were obtained:
[1] = target: T1, D(3) dopamine receptor (Rattus norvegicus, UniProt P19020); assay: Binding affinity against Dopamine receptor D3 from CHO-K1 cells, using [3H]spiperone as the radioligand.; type: cell-based; conditions: read-out: Ki
[2] = target: T2, D(2) dopamine receptor (Rattus norvegicus, UniProt P61169); assay: Binding affinity against Dopamine receptor D2 from CHO-K1 cells, using [3H]U-86,170 as the radioligand.; type: cell-based
[3] = target: 5-hydroxytryptamine receptor 1D (Homo sapiens, UniProt P28221); assay: Binding affinity against 5-hydroxytryptamine 1D receptor alpha expressed in CHO-K1 cells, using [3H]-5-HT as the radioligand.; type: cell-based; conditions: read-out: Ki
[4] = target: T3, 5-hydroxytryptamine receptor 1A (Rattus norvegicus, UniProt P19327); assay: Binding affinity against 5-hydroxytryptamine 1A receptor from CHO-K1 cells, using [3H]8-OH-DPAT as the radioligand.; type: cell-based
T3 sequence (P19327 whole entry): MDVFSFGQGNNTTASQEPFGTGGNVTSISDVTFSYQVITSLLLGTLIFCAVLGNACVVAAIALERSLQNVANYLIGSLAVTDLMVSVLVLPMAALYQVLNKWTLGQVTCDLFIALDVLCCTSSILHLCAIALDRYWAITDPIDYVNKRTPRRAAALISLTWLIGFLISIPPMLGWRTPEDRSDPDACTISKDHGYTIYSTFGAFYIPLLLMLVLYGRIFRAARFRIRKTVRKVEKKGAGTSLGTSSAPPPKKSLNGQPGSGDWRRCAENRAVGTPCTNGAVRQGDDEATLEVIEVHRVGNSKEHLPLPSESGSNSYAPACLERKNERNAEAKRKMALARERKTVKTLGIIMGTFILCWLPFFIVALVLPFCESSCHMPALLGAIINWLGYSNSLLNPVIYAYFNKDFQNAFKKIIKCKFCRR

[5] = tested on: Rattus norvegicus; assay: compound was tested in vivo for 5-HTP accumulation in corpus striatum against reserpine-pretreated rats, activity expressed as ED50;I= inactive at the highest dose tested; type: functional, organism-based
[6] = target: 5-hydroxytryptamine receptor 1B (Homo sapiens, UniProt P28222); assay: Binding affinity against 5-hydroxytryptamine 1D receptor beta expressed in CHO-K1 cells, using [3H]5-HT as the radioligand.; type: cell-based; conditions: for pKi: read-out: Ki
[7] = tested on: Rattus norvegicus; assay: The compound was tested in vivo for DOPA accumulation in limbic system against reserpine-pretreated rats; I=inactive at the highest dose tested; type: functional, organism-based
[8] = tested on: Rattus norvegicus; assay: The compound was tested in vivo for DOPA accumulation in hemispheres (cortex) against reserpine-pretreated rats;I= inactive at the highest dose tested; type: functional, organism-based
[9] = tested on: Rattus norvegicus; assay: The Compound was tested in vivo for DOPA accumulation in hemispheres (cortex) against reserpine-pretreated rats;I= inactive at the highest dose tested (50).; type: functional, organism-based
[10] = tested on: Rattus norvegicus; assay: Compound was tested in vivo for 5-HTP accumulation in limbic system against reserpine-pretreated rats;P= significant partial reduction only at the highest dose tested (50).; type: functional, organism-based
[11] = tested on: Rattus norvegicus; assay: The Compound was tested in vivo for DOPA accumulation in limbic system against reserpine-pretreated rats; P=significant partial reduction only at the highest dose tested (50).; type: functional, organism-based
[12] = tested on: Rattus norvegicus; assay: Compound was tested in vivo for DOPA accumulation in corpus striatum against reserpine-pretreated rats;P= significant partial reduction only at the highest dose tested (50).; type: functional, organism-based
[13] = tested on: Rattus norvegicus; assay: Compound was tested in vivo for 5-HTP accumulation in hemispheres (cortex) against reserpine-pretreated rats;I= inactive at the highest dose tested (50).; type: functional, organism-based
[14] = tested on: Rattus norvegicus; assay: Compound was tested in vivo for 5-HTP accumulation in corpus striatum against reserpine-pretreated rats;I= inactive at the highest dose tested (50).; type: functional, organism-based
[15] = tested on: Rattus norvegicus; assay: Compound was tested in vivo for 5-HTP accumulation in limbic system against reserpine-pretreated rats; P=significant partial reduction only at the highest dose tested (50).; type: functional, organism-based
[16] = tested on: Rattus norvegicus; assay: Compound was tested in vivo for 5-HTP accumulation in corpus striatum against reserpine-pretreated rats; P=significant partial reduction only at the highest dose tested (50).; type: functional, organism-based
[17] = target: T2, D(2) dopamine receptor; conditions: cho-k1
[18] = tested on: Rattus norvegicus; assay: Compound was tested in vivo for 5-HTP accumulation in hemispheres (cortex) against reserpine-pretreated rats; P=significant partial reduction only at the highest dose tested (50).; type: functional, organism-based
[19] = tested on: Rattus norvegicus; assay: The Compound was tested in vivo for DOPA accumulation in hemispheres (cortex) against reserpine-pretreated rats; P=significant partial reduction only at the highest dose tested (50).; type: functional, organism-based
[20] = tested on: Rattus norvegicus; assay: Compound was tested in vivo for DOPA accumulation in corpus striatum against reserpine-pretreated rats;I= inactive at the highest dose tested (3.1).; type: functional, organism-based
[21] = target: T1, D(3) dopamine receptor; assay: Binding affinity against Dopamine receptor D3 expressed in CHO-K1 cells, using [3H]spiperone as the radioligand.; type: cell-based
[22] = target: T2, D(2) dopamine receptor; assay: Binding affinity against Dopamine receptor D2 expressed in CHO-K1 cells, using [3H]U-86170 as the radioligand.; type: cell-based
[23] = tested on: Rattus norvegicus; assay: The Compound was tested in vivo for DOPA accumulation in limbic system against reserpine-pretreated rats; P=significant partial reduction only at the highest dose tested (3.1).; type: functional, organism-based
[24] = tested on: Rattus norvegicus; assay: The Compound was tested in vivo for DOPA accumulation in hemispheres (cortex) against reserpine-pretreated rats; I=inactive at the highest dose tested (3.1).; type: functional, organism-based
[25] = tested on: Rattus norvegicus; assay: In vivo for DOPA accumulation in limbic system against reserpine-pretreated rats.; type: functional
[26] = tested on: Rattus norvegicus; assay: Compound was tested in vivo for 5-HTP accumulation in hemispheres (cortex) against reserpine-pretreated rats; P=significant partial reduction only at the highest dose tested (12.5).; type: functional, organism-based
[27] = tested on: Rattus norvegicus; assay: In vivo for 5-HTP accumulation in corpus striatum against reserpine-pretreated rats.; type: functional
[28] = tested on: Rattus norvegicus; assay: In vivo for 5-HTP accumulation in limbic system against reserpine-pretreated rats.; type: functional
[29] = tested on: Rattus norvegicus; assay: In vivo for DOPA accumulation in corpus striatum against reserpine-pretreated rats.; type: functional
[30] = tested on: Rattus norvegicus; assay: The Compound was tested in vivo for DOPA accumulation in hemispheres (cortex) against reserpine-pretreated rats;I= inactive at the highest dose tested (25); type: functional, organism-based
[31] = tested on: Rattus norvegicus; assay: Bioavailability in male Sprague-Dawley rats, after the po administration at a dose of 40.0(pmol/g/h); type: ADME, organism-based; conditions: in vivo
[32] = tmax in hours at a po dose of 40.0(pmol/g/h).; type: ADME, organism-based; conditions: in vivo
[33] = tmax in hours at a iv dose of 5.0(pmol/g/h).; type: ADME, organism-based; conditions: in vivo
[34] = Rat bioavailability after iv/po administration, expressed as %; type: ADME, organism-based; conditions: in vivo
[35] = tested on: Rattus norvegicus; assay: Bioavailability in male Sprague-Dawley rats, after the iv administration at a dose of 5.0(pmol/g/h); type: ADME, organism-based; conditions: in vivo
[36] = tested on: Rattus norvegicus; assay: The Compound was tested in vivo for DOPA accumulation in hemispheres (cortex) against reserpine-pretreated rats; P=significant partial reduction only at the highest dose tested (12.5).; type: functional, organism-based
[37] = tested on: Rattus norvegicus; assay: Compound was tested in vivo for DOPA accumulation in corpus striatum against reserpine-pretreated rats; P=significant partial reduction only at the highest dose tested (50).; type: functional, organism-based
[38] = tested on: Rattus norvegicus; assay: Compound was tested in vivo for 5-HTP accumulation in limbic system against reserpine-pretreated rats;I=inactive at the highest dose tested (50).; type: functional, organism-based

5-hydroxytryptamine receptor 1D, sequence (P28221 whole entry): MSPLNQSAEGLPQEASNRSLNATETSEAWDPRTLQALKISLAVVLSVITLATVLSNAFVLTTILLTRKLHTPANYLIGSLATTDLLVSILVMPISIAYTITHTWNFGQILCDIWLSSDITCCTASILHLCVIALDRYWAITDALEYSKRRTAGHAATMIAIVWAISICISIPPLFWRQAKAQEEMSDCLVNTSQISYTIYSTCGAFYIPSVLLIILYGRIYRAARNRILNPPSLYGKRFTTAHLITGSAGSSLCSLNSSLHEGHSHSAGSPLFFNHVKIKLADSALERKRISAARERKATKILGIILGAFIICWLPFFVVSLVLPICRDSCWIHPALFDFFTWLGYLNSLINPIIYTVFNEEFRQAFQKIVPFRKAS
5-hydroxytryptamine receptor 1B, sequence (P28222 whole entry): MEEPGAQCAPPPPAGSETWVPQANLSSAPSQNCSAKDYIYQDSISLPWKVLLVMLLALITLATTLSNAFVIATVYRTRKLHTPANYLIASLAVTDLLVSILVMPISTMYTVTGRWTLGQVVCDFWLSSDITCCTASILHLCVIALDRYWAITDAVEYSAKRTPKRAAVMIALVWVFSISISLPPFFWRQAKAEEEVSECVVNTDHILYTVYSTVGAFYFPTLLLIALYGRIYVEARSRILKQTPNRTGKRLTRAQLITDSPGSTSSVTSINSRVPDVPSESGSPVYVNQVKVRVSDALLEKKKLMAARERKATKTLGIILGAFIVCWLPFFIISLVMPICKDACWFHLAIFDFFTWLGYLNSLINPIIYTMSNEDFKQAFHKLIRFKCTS
T2 sequence (P61169 whole entry): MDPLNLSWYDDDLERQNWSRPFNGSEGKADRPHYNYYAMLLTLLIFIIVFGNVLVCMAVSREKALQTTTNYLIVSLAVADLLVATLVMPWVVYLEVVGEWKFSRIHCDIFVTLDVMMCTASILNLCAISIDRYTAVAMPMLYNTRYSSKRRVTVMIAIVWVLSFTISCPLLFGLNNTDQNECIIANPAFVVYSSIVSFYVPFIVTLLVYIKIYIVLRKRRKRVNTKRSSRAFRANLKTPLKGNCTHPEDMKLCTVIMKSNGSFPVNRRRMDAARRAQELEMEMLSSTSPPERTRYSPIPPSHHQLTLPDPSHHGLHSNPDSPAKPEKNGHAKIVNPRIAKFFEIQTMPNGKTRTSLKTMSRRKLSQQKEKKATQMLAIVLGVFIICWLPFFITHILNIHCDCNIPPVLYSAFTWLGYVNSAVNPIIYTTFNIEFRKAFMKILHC
T1 sequence (P19020 whole entry): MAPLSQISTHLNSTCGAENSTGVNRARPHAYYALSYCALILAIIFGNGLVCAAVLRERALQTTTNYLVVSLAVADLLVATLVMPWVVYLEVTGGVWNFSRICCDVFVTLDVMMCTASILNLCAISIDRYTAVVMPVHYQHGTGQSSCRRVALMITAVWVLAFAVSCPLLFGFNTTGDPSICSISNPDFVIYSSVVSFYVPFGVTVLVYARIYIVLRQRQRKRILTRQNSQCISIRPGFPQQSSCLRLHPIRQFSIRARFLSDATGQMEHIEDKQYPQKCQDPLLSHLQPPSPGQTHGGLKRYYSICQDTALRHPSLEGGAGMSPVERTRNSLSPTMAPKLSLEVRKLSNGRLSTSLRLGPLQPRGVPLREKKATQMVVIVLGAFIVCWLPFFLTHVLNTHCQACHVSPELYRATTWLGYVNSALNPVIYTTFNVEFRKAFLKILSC

CCCN(CCC)C1CCc2ccc3c(c(C=O)cn3C)c2C1 (stereo not given)
pKi [1]: 5.99
pKi [2]: 6.29
pKi [3]: 6.48
pKi [4]: 7.40
ED50 [5]: inactive
pKi [6]: 6.36
ED50 [7]: inactive
ED50 [8]: inactive

CCCN(CCC)C1CCc2ccc3cc[nH]c3c2C1 (stereo not given)
ED50 [9]: inactive
ED50 [10]: Weak activity
ED50 [11]: Weak activity
ED50 [12]: Weak activity
ED50 [13]: inactive
ED50 [14]: inactive

CCCN(CCC)C1CCc2ccc3[nH]cc(C(=O)C(N)=O)c3c2C1 (stereo not given)
ED50 [15]: Weak activity
ED50 [11]: Weak activity
ED50 [16]: Weak activity
ED50 [12]: Weak activity
pKi [3]: 7.06
pKi [4]: 7.62
pKi [6]: 6.26
Ki [17]: Not Active
ED50 [18]: Weak activity
ED50 [19]: Weak activity

CCCN(CCC)[C@@H]1CCc2ccc3[nH]cc(C#N)c3c2C1
ED50 [20]: inactive
pKi [21]: 7.35
pKi [22]: 7.66
pKi [3]: 8.17
pKi [4]: 9.10
pKi [6]: 7.59
ED50 [23]: Weak activity
ED50 [24]: inactive

CCCN(CCC)C1CCc2ccc3[nH]cc(SC)c3c2C1 (stereo not given)
ED50 [25]: 7.11 µmol/kg
ED50 [26]: Weak activity
ED50 [27]: 10.2 µmol/kg
ED50 [28]: 10 µmol/kg
pKi [21]: 7.26
pKi [22]: 7.48
pKi [3]: 7.74
pKi [4]: 7.89
Ki ([6]; cho-k1): Not Active
ED50 [29]: 5.23 µmol/kg
ED50 [30]: inactive

CCCN(CCC)C1CCc2ccc3[nH]cc(C#N)c3c2C1 (stereo not given)
AUC [31]: 4849 pM ml-1
T max [32]: 135 h
Tmax [33]: 2 h
pKi [21]: 7.37
pKi [22]: 7.62
bioavailability [34]: 54%
AUC [35]: 1115 pM ml-1
pKi [3]: 8.12
pKi [4]: 9.40
pKi [6]: 7.42
ED50 [36]: Weak activity

CCCN(CCC)C1CCc2ccc3c(c2C1)N(C=O)CC3 (stereo not given)
ED50 [9]: inactive
ED50 [11]: Weak activity
ED50 [37]: Weak activity
ED50 [13]: inactive
ED50 [14]: inactive
ED50 [38]: inactive
